Data reported in ChEMBL document CHEMBL1201862, “PubChem BioAssay data set” (2004).
Active and inactive are the calls of the source.

What was measured:
Escherichia coli [1] = test: microbe, parasite or virus in culture
Escherichia coli [2] = test: microbe, parasite or virus in culture; remark: listed apart in the source
[3] = target: Peroxisome proliferator-activated receptor gamma/Nuclear receptor coactivator 3 (Homo sapiens, UniProt P37231); test: TR-FRET dose response biochemical High Throughput Screening assay for agonists of the steroid receptor coactivator 3 (SRC-3) recruitment by the peroxisome proliferator-activated receptor gamma (PPAR gamma): non-selective agonists. [Related pubchem assays: 1301 (Confirmation screen.), 1048 (Primary screen.)]; assay type: functional
[4] = target: Peroxisome proliferator-activated receptor gamma/Nuclear receptor coactivator 1 (Homo sapiens, UniProt P37231); test: TR-FRET dose response biochemical High Throughput Screening assay for agonists of the steroid receptor coactivator 1 (SRC-1) recruitment by the peroxisome proliferator-activated receptor gamma (PPAR gamma): non-selective agonists. [Related pubchem assays (depositor defined):AID1300, AID1808, AID504735, AID631]; assay type: protein assay
Cytochrome P450 2D6 = Cytochrome P450 2D6 (Homo sapiens, UniProt P10635);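 also: CYP2D6 member of a cytochrome P450 panel assay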
[5] = target: Peroxisome proliferator-activated receptor gamma/Nuclear receptor coactivator 2 (Homo sapiens, UniProt P37231); test: TR-FRET dose response biochemical High Throughput Screening assay for agonists of the steroid receptor coactivator 2 (SRC-2) recruitment by the peroxisome proliferator-activated receptor gamma (PPAR gamma): non-selective agonists. [Related pubchem assays: 1297, 1032 ]; assay type: functional
Cytochrome P450 2C9 = Cytochrome P450 2C9 (Homo sapiens, UniProt P11712)
Cytochrome P450 2C19 = Cytochrome P450 2C19 (Homo sapiens, UniProt P33261); test: Cytochrome panel assay with activity outcomes. Panel member name: p450-cyp2c19 Compounds with AC50 equal or less than 10 uM are considered active; assay type: functional; details: read-out: AC50
[6] = target: ATP-dependent molecular chaperone HSP82 (Candida albicans (strain WO-1) (Yeast), UniProt C4YTQ8); test: steroid-induced GRE reporter decrease in yeast – S. cerevisiae, luminescence, Hsp90 inhibitor project, dose response (AID 2400); assay type: functional, cell-based;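 also: beta-galactosidase luminescence from glucocorticoid response element reporter as proxy for Hsp90 function; inhibitor potency where signal loss means Hsp90 inhibition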
cells [7] = assay type: functional, cell-based
[8] = NIH-3T3 fibroblast cytotoxicity, dose response, cytotoxicity control, cell-based, fluorescence, Alamar Blue, secondary assay (AID 2327); assay type: functional;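 also: NIH-3T3 mouse fibroblasts cultured with fluconazole at 8 µg/mL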
INS1 = test: INS-1E survival protection against cytokine death – cell-based, luminescence, retest, dose response (AID 449756); assay type: functional; details: Rattus norvegicus;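 also: cell death triggered by IL-1 beta plus TNF-alpha plus IFN-gamma mixture; protective hits raise ATP signal compared with cytokine alone wells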
[9] = fluconazole-exposed Candida albicans growth modulators – fluorescence, retest, confirmation (AID 2467); assay type: functional, cell-based
[10] = target: Heat shock protein HSP 90-alpha (Homo sapiens, UniProt P07900); assay type: functional, organism-based
[11] = HEK-293T viability loss after treatment – luminescence, T-cell screen hits, cytotoxicity control for TCR NF-kB inhibitor project, dose response (AID 489026); assay type: functional, cell-based;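 also: cells exposed to compound about 14 hours before the viability readout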
[12] = target: T1, Serine/threonine-protein phosphatase (Candida dubliniensis (strain CD36 / CBS 7987 / NCPF 3949 / NRRLY-17841) (Yeast), UniProt B9W6M3); test: blockers of CaCl2-induced CDRE-lacZ signaling – S. cerevisiae, luminescence, secondary, dose response (AID 2388); assay type: functional, cell-based;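 also: yeast reporter cells carrying a calcineurin-responsive lacZ construct stimulated with calcium chloride; luminescent beta-galactosidase reporter signal in whole cells rather than isolated phosphatase activity; potency for inhibition where a drop in reporter signal means calcineurin blockade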
T1 sequence (B9W6M3 whole entry): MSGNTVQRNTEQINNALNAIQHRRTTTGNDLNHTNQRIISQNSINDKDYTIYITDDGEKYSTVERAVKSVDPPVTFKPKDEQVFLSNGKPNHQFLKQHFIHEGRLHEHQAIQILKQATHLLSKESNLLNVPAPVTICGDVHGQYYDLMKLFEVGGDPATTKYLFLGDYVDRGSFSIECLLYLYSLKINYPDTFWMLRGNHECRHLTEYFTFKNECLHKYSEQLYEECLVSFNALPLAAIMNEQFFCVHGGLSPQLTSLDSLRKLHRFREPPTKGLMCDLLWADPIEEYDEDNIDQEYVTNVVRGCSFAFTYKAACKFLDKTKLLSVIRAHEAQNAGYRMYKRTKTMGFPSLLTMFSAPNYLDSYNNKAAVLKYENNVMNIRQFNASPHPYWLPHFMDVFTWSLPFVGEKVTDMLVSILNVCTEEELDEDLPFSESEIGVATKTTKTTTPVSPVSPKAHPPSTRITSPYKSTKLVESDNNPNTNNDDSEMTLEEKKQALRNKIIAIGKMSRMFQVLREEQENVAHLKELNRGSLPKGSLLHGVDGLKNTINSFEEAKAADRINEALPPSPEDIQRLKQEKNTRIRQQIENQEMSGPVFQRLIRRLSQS

[13] = microbe, parasite or virus in culture; assay type: functional; details: Mycobacterium tuberculosis
cells [14] = assay type: functional, cell-based; remark: listed apart in the source
[15] = target: T2, Apoptotic protease-activating factor 1 (Homo sapiens, UniProt O14727); test: SAR analysis of small molecule inhibitors of Apaf-1 in a Fluorescent assay.; assay type: functional; details: read-out: IC50_Mean
T2 sequence (O14727 whole entry): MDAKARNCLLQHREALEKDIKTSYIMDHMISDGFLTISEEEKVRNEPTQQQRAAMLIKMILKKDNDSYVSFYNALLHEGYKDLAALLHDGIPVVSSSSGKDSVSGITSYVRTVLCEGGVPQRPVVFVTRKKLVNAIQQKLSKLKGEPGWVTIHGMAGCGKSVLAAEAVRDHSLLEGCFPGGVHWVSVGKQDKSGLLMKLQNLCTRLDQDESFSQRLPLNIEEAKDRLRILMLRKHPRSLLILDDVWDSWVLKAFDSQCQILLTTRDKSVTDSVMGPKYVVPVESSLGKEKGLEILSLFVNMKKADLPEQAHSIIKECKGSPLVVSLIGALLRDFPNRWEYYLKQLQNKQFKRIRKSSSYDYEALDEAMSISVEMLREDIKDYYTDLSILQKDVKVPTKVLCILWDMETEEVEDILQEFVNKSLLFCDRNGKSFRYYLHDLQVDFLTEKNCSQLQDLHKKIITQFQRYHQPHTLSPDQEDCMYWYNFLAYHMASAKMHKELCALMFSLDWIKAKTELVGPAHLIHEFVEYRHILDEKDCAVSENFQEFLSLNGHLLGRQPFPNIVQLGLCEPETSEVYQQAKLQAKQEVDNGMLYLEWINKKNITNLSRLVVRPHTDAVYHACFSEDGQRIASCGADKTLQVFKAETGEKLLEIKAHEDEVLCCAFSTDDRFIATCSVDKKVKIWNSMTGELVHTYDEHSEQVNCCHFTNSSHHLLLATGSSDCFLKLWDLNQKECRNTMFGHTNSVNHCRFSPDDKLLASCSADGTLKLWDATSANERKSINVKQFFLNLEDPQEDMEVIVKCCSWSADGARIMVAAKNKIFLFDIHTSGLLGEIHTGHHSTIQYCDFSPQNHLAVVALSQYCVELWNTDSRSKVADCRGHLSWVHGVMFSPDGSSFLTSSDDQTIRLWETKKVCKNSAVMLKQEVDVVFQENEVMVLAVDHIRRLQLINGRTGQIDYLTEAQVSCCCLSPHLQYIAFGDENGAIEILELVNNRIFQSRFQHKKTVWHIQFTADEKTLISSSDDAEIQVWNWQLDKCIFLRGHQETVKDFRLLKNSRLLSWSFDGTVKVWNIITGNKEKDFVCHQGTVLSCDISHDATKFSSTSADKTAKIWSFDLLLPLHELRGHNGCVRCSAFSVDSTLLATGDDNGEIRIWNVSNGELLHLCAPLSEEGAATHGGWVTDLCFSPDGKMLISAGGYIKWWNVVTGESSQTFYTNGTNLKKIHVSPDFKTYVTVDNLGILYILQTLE

Streptococcus = test: GAS UMAA2166 growth inhibition – luminescence, BacTiterGlo, counter-screen for streptokinase expression inhibitor project, dose response (AID 1915); assay type: functional, organism-based;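 also: potency for reduction of bacterial viability or growth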
[16] = test system: Streptococcus sp. 'group A'; test: Streptococcus pyogenes SK(-)GAS viability under kanamycin – luminescence, BacTiterGlo, confirmation, counter-screen for streptokinase expression inhibitor project, dose response (AID 1900); assay type: functional, organism-based
Phospholipase A2 = Phospholipase A2 (Homo sapiens, UniProt P04054); assay type: functional;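 also: confirmatory dose-response counterscreen on phospholipase A2, testing hits that came from an ultra-high-throughput screen for ATG4B inhibitors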
Protein Tat = target: T3, Protein Tat (Human immunodeficiency virus type 1 group M subtype B (isolate HXB2)(HIV-1), UniProt P04608); assay type: functional;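 also: tat binding to TAR RNA read out by fluorescence polarization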
T3 sequence (P04608 whole entry): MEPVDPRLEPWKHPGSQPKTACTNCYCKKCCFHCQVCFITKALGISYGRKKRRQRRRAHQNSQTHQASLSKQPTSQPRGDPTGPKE

Cysteine protease ATG4B = target: T4, Cysteine protease ATG4B (Homo sapiens, UniProt Q9Y4P1); assay type: functional;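 also: Fluorescence-based dose-response confirmation assay measuring inhibition of ATG4B activity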
T4 sequence (Q9Y4P1 whole entry): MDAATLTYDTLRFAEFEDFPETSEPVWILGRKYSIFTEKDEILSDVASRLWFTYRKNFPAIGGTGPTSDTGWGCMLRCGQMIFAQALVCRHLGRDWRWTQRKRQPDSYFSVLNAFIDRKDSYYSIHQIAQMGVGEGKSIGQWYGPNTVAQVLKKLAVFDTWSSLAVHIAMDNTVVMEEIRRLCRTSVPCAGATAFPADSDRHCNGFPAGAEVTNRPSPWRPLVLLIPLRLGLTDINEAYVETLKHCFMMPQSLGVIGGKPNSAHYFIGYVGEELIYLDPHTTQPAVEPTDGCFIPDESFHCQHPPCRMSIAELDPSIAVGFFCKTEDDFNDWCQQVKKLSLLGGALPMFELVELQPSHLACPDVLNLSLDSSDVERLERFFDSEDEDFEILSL

Beta Lactamase = Beta Lactamase (Pseudomonas aeruginosa, UniProt Q932Y6); test: BLA reporter interference, concentration series – BLA reporter cells, FRET fluorescence, artefact control for TLR9-MyD88 binding inhibitor project, dose response (AID 588341); assay type: cell-based;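 also: cell based assay in CHO-K1 cells stably expressing beta-lactamase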
CHO = CHO cell viability loss, potency – luminescence, cytotoxicity control for TLR9-MyD88 binding inhibitor project, dose response (AID 588339); assay type: functional, cell-based, hamster; details: Cricetulus griseus;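 also: CHO cells stably coexpressing TLR9 and MyD88 fusions from primary screen; compound exposure lasted 48 hours before viability readout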
Keap1/Nrf2 = Keap1/Nrf2 (Homo sapiens, UniProt Q14145); test: disruptors of Keap1 binding to Nrf2 peptide – biochemical, fluorescence polarization, cherry-picked samples, dose response (AID 588683)
[17] = target: Photoreceptor-specific nuclear receptor (Homo sapiens, UniProt Q9Y5X4); assay type: functional;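 also: potency for compounds that break the NR2E3 corepressor complex and count as activators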
[18] = target: Peroxisome proliferator-activated receptor gamma/Nuclear receptor corepressor 2 (Homo sapiens, UniProt P37231+Q9Y618); assay type: functional

Sequence of Cytochrome P450 2D6 (P10635 whole entry): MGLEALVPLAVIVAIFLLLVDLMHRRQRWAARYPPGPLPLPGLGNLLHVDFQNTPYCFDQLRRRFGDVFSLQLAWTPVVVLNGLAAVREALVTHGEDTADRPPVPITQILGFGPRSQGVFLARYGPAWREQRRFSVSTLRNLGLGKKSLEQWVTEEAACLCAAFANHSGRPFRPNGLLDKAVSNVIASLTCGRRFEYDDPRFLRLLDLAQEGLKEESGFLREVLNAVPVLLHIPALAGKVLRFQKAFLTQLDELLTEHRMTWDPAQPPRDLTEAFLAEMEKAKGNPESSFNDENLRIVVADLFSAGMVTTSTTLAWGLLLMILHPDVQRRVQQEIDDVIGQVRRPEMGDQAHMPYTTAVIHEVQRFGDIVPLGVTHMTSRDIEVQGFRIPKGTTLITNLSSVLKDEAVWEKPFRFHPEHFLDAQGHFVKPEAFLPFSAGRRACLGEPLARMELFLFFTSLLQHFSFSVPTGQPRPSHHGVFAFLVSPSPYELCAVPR
Sequence of ATP-dependent molecular chaperone HSP82 (C4YTQ8 whole entry): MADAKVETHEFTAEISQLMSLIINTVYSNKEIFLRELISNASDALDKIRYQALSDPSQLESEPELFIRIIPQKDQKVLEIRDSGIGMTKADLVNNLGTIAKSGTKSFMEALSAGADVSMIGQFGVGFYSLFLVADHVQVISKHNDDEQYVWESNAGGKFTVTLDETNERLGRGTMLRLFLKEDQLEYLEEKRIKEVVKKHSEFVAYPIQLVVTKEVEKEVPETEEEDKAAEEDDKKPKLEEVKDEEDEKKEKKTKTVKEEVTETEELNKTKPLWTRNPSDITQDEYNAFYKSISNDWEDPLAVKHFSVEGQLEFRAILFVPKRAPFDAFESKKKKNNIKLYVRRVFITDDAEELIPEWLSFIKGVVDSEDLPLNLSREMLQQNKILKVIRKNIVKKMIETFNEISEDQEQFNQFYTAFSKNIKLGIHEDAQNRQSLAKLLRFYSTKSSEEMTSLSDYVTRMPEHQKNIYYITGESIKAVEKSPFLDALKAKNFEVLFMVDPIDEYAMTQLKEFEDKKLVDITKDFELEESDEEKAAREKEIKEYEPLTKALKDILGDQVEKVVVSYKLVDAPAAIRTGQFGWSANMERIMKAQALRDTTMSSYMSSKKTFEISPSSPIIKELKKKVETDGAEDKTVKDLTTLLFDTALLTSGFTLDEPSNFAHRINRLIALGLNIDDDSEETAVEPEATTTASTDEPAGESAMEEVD
Sequence of Peroxisome proliferator-activated receptor gamma/Nuclear receptor coactivator 2 (P37231 whole entry): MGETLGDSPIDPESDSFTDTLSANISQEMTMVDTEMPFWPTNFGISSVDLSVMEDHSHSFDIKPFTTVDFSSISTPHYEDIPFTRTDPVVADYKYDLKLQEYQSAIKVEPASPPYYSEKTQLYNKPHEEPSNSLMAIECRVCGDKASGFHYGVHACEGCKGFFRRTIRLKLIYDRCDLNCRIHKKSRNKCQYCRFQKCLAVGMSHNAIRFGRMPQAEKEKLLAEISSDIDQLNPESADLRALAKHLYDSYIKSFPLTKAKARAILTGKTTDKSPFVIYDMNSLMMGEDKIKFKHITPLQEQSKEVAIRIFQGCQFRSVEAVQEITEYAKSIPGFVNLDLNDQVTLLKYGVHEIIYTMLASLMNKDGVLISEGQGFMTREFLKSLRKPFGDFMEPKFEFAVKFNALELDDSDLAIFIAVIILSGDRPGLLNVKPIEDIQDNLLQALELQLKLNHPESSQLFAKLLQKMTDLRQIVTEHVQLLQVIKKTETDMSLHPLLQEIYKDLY
Sequence of Peroxisome proliferator-activated receptor gamma/Nuclear receptor coactivator 2 (Q15596 whole entry, further chain): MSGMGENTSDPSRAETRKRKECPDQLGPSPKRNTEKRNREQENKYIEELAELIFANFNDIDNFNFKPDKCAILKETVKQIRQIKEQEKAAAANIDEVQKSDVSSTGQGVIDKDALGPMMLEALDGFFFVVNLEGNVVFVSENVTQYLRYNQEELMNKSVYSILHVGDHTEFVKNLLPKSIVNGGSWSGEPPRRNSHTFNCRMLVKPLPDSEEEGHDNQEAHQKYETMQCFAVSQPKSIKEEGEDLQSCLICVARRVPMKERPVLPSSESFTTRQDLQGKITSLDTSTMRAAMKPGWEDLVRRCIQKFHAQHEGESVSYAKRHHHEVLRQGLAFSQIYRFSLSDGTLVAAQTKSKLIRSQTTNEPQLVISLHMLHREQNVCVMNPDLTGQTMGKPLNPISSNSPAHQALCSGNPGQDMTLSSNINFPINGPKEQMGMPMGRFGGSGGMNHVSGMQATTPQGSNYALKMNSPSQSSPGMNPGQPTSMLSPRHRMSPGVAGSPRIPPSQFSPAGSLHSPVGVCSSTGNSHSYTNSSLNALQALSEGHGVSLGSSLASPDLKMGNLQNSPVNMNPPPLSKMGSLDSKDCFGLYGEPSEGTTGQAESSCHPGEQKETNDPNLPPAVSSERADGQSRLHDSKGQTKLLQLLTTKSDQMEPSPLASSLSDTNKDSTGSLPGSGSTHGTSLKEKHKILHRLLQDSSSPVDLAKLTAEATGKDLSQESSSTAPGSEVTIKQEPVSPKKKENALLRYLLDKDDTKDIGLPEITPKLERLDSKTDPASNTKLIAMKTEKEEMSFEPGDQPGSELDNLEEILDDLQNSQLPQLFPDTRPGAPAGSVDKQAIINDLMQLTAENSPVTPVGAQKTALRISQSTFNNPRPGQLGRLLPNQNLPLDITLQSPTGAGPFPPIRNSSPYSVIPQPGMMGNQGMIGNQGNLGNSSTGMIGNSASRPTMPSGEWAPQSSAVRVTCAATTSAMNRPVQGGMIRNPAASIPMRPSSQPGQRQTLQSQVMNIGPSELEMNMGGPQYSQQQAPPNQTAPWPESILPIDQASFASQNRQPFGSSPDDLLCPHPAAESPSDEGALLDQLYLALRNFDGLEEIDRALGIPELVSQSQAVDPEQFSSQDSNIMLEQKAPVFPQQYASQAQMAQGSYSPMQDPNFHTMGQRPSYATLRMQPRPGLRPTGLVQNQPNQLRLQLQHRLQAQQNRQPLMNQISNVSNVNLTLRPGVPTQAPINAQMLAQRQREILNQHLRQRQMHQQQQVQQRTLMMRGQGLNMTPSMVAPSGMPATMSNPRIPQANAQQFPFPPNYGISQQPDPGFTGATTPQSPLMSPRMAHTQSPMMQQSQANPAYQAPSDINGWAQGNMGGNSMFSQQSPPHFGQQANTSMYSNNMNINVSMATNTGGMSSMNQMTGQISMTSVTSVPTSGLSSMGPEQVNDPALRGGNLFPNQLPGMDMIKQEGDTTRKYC
Sequence of Peroxisome proliferator-activated receptor gamma/Nuclear receptor coactivator 3 (P37231 whole entry): as the sequence (P37231 whole entry) above
Sequence of Peroxisome proliferator-activated receptor gamma/Nuclear receptor coactivator 3 (Q9Y6Q9 whole entry, further chain): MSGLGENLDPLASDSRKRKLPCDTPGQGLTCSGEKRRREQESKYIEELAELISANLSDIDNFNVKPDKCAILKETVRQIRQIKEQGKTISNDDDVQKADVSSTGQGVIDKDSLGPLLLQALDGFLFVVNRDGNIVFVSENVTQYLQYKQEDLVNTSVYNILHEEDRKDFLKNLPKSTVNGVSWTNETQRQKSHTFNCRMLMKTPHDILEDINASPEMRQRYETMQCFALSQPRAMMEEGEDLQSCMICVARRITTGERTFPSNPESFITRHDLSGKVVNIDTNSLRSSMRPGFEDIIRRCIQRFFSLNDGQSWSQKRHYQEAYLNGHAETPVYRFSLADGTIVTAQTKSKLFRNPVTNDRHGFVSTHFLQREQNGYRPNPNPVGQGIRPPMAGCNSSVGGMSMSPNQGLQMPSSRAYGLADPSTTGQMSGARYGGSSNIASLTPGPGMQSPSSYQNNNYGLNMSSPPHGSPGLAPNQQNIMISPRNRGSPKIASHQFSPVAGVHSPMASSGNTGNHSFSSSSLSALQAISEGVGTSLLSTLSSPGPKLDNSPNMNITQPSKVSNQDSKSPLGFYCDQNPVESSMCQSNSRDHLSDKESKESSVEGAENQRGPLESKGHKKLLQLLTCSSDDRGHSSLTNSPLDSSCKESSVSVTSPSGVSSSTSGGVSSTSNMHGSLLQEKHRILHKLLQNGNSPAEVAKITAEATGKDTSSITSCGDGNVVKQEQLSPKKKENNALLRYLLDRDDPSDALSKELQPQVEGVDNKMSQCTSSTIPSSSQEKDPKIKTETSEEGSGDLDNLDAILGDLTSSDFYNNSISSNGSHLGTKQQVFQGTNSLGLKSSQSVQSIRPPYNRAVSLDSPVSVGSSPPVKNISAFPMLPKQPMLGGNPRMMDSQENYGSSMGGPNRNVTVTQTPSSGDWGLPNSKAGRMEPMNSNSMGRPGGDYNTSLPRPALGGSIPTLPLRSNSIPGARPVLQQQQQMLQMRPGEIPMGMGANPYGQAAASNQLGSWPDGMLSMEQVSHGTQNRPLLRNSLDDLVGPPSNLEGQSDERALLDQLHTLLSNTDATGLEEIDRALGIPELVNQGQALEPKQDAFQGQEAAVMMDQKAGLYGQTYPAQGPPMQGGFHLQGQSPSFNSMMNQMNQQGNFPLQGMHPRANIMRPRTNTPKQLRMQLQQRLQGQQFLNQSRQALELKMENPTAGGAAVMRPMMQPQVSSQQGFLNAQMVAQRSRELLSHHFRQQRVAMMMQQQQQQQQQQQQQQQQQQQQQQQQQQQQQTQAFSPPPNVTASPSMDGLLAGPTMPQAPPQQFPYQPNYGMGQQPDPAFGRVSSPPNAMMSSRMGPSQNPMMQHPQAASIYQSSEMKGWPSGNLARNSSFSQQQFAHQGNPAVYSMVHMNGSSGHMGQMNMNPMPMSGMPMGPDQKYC

Structure (SMILES): CN(CC(=O)NCc1cccnc1)S(=O)(=O)c1ccccc1
- AC50 (Escherichia coli [1]): 54.1 µM (active)

Structure (SMILES): O=C(CCSc1ccccc1)NCC1CCCO1 (configuration not stated)
- AC50 (Escherichia coli [2]): 30.4 µM (active)

Structure (SMILES): CCn1c(=O)cc(SCC(=O)Nc2cc(OC)c(OC)c(OC)c2)c2ccccc21
- EC50 [3]: > 79.4 µM (not active)
- EC50 [4]: > 79.4 µM (inactive)
- AC50 (Cytochrome P450 2D6): inconclusive
- EC50 [5]: 76.2 µM (not active)
- AC50 (Cytochrome P450 2C9): inconclusive
- AC50 (Cytochrome P450 2C19): 0.355 µM (inconclusive)

Structure (SMILES): COc1cccc(/C=N/Nc2ncnc3scc(-c4ccccc4)c23)c1O
- EC50 [6]: 17.7 µM (active)
- EC50 (cells [7]): 2.21 µM (active)
- EC50 [8]: > 150 µM (inactive)
- AC50 (INS1): 0.432 µM (active)
- EC50 [9]: 0.753 µM (active)
- AC50 [10]: 24.5 µM (active)
- IC50 [11]: 62.5 µM (inactive)
- EC50 [12]: > 180 µM (inactive)
- CC50 [13]: 1.31 µM (active)
- EC50 (cells [14]): > 350 µM (not active)

Structure (SMILES): Nc1ccc(S(=O)(=O)NCCS(=O)(=O)O)cc1
- AC50 (Cytochrome P450 2D6): inconclusive

Structure (SMILES): CCN(CC)CCOC(=O)c1ccc(N/C=C(\C#N)c2nc(-c3ccc(Br)cc3)cs2)cc1
- IC50 [15]: 14.7 µM (active)

Structure (SMILES): CCN(CC)CCOC(=O)c1ccc(N/C=C(\C#N)c2nc(-c3cccs3)cs2)cc1
- IC50 [15]: 13.7 µM (active)

Structure (SMILES): Oc1c(C(c2ccc(Cl)cc2)N2CCCC2)cc(Cl)c2cccnc12 (configuration not stated)
- EC50 [6]: 22.5 µM (active)
- EC50 [8]: 15 µM (active)
- EC50 [9]: 0.135 µM (active)
- AC50 [10]: 2.02 µM (active)
- EC50 [12]: > 180 µM (inactive)
- EC50 (Streptococcus): 1.41 µM (active)
- EC50 [16]: 1.34 µM (active)

Structure (SMILES): C[C@]12CC[C@H]3c4ccc(O)cc4CC[C@@H]3[C@H]1C/C(=N/O)[C@H]2O
- AC50 (Cytochrome P450 2D6): inconclusive

Structure (SMILES): CN(C)[C@@H]1C(O)=C(C(N)=O)C(=O)[C@@]2(O)C(O)=C3C(=O)c4c(O)ccc(Cl)c4[C@@](C)(O)C3C[C@@H]12 (some centres not stated)
- IC50 (Phospholipase A2): 5.75 µM (active)
- AC50 (Escherichia coli [1]): 1.2 µM (active)
- IC50 (Protein Tat): > 100 µM (active)
- AC50 (Escherichia coli [2]): 47 µM (active)
- IC50 (Cysteine protease ATG4B): 6.14 µM (active)

Structure (SMILES): CC(=O)c1sc2nc(-c3ccc(C)cc3)c3c(c2c1N)CCCC3
- IC50 (Beta Lactamase): 3.73 µM (active)
- IC50 (CHO): 36.7 µM (inactive)

Structure (SMILES): CN1CC=C2C(C#N)=C(N)C(C#N)(C#N)[C@H](c3cccs3)[C@H]2C1
- AC50 (Keap1/Nrf2): > 52 µM (inactive)

Structure (SMILES): O=C(C1=C(O)C(=O)N(CCc2ccccc2)C1c1ccncc1)c1cc2ccccc2o1 (configuration not stated)
- EC50 [3]: > 79.4 µM (not active)
- EC50 [4]: > 79.4 µM (inactive)
- EC50 [5]: 26.1 µM (not active)
- IC50 [17]: > 39.8 µM (not active)
- IC50 [18]: 7.02 µM (active)
